# Reference: article PMC8016166, “Identification of a Potent and Selective 5-HT1A Receptor Agonist with In Vitro and In Vivo Antinociceptive Activity” (ACS Chemical Neuroscience, 2020)
# Assays:
# 5-HT1AR [1] = biological target: T1, 5-HT1AR (Rattus norvegicus, UniProt P19327); test: [35S]GTPγS functional 5-HT1A assay in rat hippocampal membranes; format: biochemical; settings: read-out: 5-HT1A Emax (%) ± SEM
# T1 construct: from tissue; hippocampus per the main-text methods
# T1 sequence (P19327 1-422): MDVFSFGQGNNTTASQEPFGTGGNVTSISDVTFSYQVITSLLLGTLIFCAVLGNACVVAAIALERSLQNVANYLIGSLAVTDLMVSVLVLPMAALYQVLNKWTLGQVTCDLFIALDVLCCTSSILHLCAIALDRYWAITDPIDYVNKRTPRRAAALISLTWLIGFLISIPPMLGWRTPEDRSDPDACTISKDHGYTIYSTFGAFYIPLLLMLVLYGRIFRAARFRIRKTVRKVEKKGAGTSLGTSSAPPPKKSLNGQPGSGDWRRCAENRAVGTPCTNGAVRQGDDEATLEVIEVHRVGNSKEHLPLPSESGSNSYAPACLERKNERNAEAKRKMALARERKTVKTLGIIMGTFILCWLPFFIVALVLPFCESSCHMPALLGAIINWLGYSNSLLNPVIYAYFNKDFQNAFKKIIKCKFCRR
# Description: (§1) Male Sprague–Dawley rats were decapitated and their brains removed and placed on ice. The hippocampi (for the functional 5-HT1A receptor assay) or frontal cortexes (for the competitive 5-HT2A and 5-HT2C receptor assays) were dissected and homogenized with a glass homogenizer in 30 vol. ice-cold TED buffer (50 mMTris-HCl, 1 mM EDTA, 1 mM dithiotheritol, pH 7.4). Next, the homogenate was centrifuged at 21 000g for 30 min at 4 °C. The pellet was suspended in 30 vol TED buffer (pH 7.4) and incubated in a water bath for 10 min at 37 °C to remove endogenous ligands. The suspension was centrifuged again at 21 000g for 30 min at 4 °C. The pellet was resuspended in 30 vol TED buffer (pH 7.4) and the centrifugation step was repeated. The final pellet was suspended in 10 vol 50 mM Tris-HCl (pH 7.4) and stored at −80 °C until use.[47]
# (§2) The [^35S]GTPγS assay was performed according to the method described previously.[49] […] Nonspecific binding was determined with 100 μM of unlabeled GTPγS. The reaction mixture was incubated for 90 min at 36 °C in a volume of 250 μL. […] Next, 96-well Unifilter Plates (PerkinElmer, USA) were presoaked for 1 h with 50 mM Tris-HCl (pH = 7.4) before harvesting. The reaction was terminated by vacuum filtration onto filter plates with the Filter Mate Harvester (PerkinElmer, USA). The samples were then rapidly washed with 2 mL of 50 mM Tris-HCl (pH = 7.4) buffer. The filter plates were dried for 2 h at 50 °C. After drying, 45 μL of EcoScint-20 scintillant (PerkinElmer, USA) was added to every well. The radioactivity was counted in a Trilux MicroBeta^2 counter (PerkinElmer, USA). The data were analyzed with GraphPad Prism 5.0 software (GraphPad Software, San Diego California USA, www.graphpad.com). To determine whether compound-stimulated [^35S]GTPγS binding involved 5-HT1A receptors, two protocols were used.
# The curves were fitted with a one-site nonlinear regression model. Efficacy (Emax) and potency (pEC50) were calculated from […] from three separate experiments and expressed as the means ± SEM. […] The differences in compound potency and efficacy were evaluated with one-way ANOVA followed by the Bonferroni’s post-hoc test. The baseline G-protein stimulation was set at 100%. One, two, or three symbols represent statistical significance of 0.05, 0.01, and 0.001, respectively.
# Male Swiss CB1 mice = test: Formalin test; format: in vivo, mouse
# Description: Male Swiss CB1 mice (Envigo, S. Pietro al Natisone (UD)) weighing 25–30 g were used. The animals were kept at a constant room temperature (25 ± 1 °C) under a 12:12 h light and dark cycle, with free access to food and water. Each mouse was used for only one experiment. […] All the tests were performed blind to treatment.
# The formalin (5%, 10 μL; Sigma-Aldrich) was injected subcutaneously into the plantar side of the right hind paw.[68] After injection, the mice were immediately placed in a plexiglas box: the total time (in seconds) spent on licking or biting the injected hind paw was recorded every 5 min at selected intervals, 0–10 (phase I) and 10–60 (phase II) min, in the different experimental groups, as an indicator of nociceptive behavior. […] A mean response was then calculated for each phase. […] A vehicle solution containing 10% DMSO was given as a control. Morphine was used as positive control. The test compound and vehicle were […] (i.p.) administered (5 mL/kg) 15 min before the formalin. […] The data are expressed as mean values (SEM). Analyses of variance (two-way repeated measures ANOVA followed by post hoc Bonferroni test) were performed to assess significance using the Instat 3.0 software (GraphPad Software, San Diego, CA). p < 0.05 was considered significant.
# [2] = test system: superficial dorsal horn neurons (lamina I–II); test: Patch-clamp recording from spinal cord slices; format: cell-based, mouse
# Description: The Italian Ministry of Health approved all the experiments that were conducted on postnatal CD1 mice (P18–P25) in accordance with the Guide for the Care and Use of Laboratory Animals and the EU and Italian regulations on animal welfare. The spinal cord slices were obtained following the procedure described previously.[69],[70] Briefly, the animals were anesthetized with isoflurane and decapitated, the spinal cord and vertebrae were rapidly removed and placed in ice-cold dissecting Krebs’ solution (composition in mM:125 NaCl, 2.5 KCl, 1.25 NaH2PO4, 26 NaHCO3, 25 glucose, 6 MgCl2, 1.5 CaCl2, and 1 kynurenic acid, pH 7.4, 320 mOsm), bubbled with 95% O2, 5% CO2. The lumbar spinal cord was isolated, embedded in an agarose block (low melting point agarose 3%, Thermo Fisher Scientific, Waltham, USA), and transverse slices (500 μm thick) were obtained using a vibrating microtome (WPI, Sarasota, USA). The slices were incubated in oxygenated incubation Krebs’ solution (the same as dissecting but without kynurenic acid) at 35 °C for 30 min and used for recording. The Patch-clamp recording in whole-cell configuration was performed on lamina I–II neurons at room temperature. The slices were perfused at 2 mL/min with recording Krebs’solution (in mM: 125 NaCl, 2.5 KCl, 1.25 NaH2PO4, 26 NaHCO3, 25 glucose, 1 MgCl2, and 2 CaCl2, pH 7.4, 320 mOsm). Recordings of post-synaptic currents (EPSCs) were performed in voltage clamp, by using an intracellular solution with the following composition (in mM): 120 potassium methanesulfonate, 10 NaCl, 10 EGTA, 1 CaCl2, 10 HEPES, 5 ATP-Mg, pH adjusted to 7.2 with KOH, osmolarity 300 mOsm. 8-OH-DPAT was obtained from Sigma-Aldrich (Saint Louis, USA). The data were recorded and acquired using a Multiclamp 700A amplifier and the pClamp 10 software (Molecular Devices, Sunnyvale, USA). The sampling rate was 10 kHz, and the data were filtered at 2 kHz. The data were analyzed off-line using pClamp10 software and Minianalysis (Synaptosoft, USA). The data are expressed as the mean ± SEM and differences were considered significant for p < 0.05. The statistical significance for the effect on EPSC frequency was determined using the Kolmogorov–Smirnov test on individual neurons.
# 5-HT1AR [3] = biological target: T1, 5-HT1AR; test: Effect of WAY100635 on compound-stimulated [35S]GTPγS binding (Tables SI-1, SI-2); format: biochemical
# Description: as §2, with “used. […]” for “used.”
# WAY).) Results were expressed as means ± SEM. Curves were fitted with a one-site sigmoidal dose-response equation […]
# calculated as the ratio of pEC50 in the presence of WAY100635 divided by the pEC50 of agonist alone. Basal 5-HT1AR activation was set to 100%. Results were analyzed with one-way ANOVA followed by the Bonferroni’s post-hoc test. […]
# WAY100635 (10^-10 M - 10^-5 M, WAY). Results were expressed as means ± SEM. Curves were fitted with a one-site sigmoidal dose-response equation and Emax (%) of the EC80 agonist concentration alone and in the presence of WAY100635 were determined from 2 independent experiments. Basal (no ligand added) [35S]GTPγS binding was set to 100%. Results were analyzed with one-way ANOVA followed by the Bonferroni’s post-hoc test.
# 5-HT2CR = biological target: T2, 5-HT2CR (Rattus norvegicus, UniProt P08909); test: Radioligand binding at 5-HT2C on rat frontal cortex membranes; settings: rat frontal cortex membranes; [3H]mesulergine
# T2 construct: from tissue; host or cells: frontal cortex of male Sprague-Dawley rats
# T2 sequence (P08909 33-460): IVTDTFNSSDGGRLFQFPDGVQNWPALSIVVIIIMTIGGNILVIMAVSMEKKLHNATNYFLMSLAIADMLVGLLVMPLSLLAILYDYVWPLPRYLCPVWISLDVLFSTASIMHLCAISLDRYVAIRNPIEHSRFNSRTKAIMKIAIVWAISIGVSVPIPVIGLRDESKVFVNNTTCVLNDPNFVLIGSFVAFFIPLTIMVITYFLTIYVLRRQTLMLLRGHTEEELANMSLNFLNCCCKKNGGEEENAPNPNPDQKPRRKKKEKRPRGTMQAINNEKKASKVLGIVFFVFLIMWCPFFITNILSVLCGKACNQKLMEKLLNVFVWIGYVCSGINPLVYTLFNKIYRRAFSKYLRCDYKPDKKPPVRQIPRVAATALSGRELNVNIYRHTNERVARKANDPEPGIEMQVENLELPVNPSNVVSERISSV
# Description: as §1
# The 5-HT2A assay was performed according to a previously described protocol with some modifications.[48] […] Nonspecific binding was determined in the presence of 10 μM mianserin. For the 5-HT2C assay, the frontal cortex homogenates (250 μg protein/mL) were incubated in triplicate with 1 nM [^3H]mesulergine for 60 min at 36 °C in a 50 mM Tris-HCl (pH 7.4) buffer containing 0.1% ascorbate, 10 mM MgCl2, 10 μM pargyline, 100 nM spiperone, and increasing concentrations (10^–10–10^–5 M) of the compound tested. After incubation, the reaction mixture was deposited onto UniFilter-96 GF/B plates, with the aid of a FilterMate-96 Harvester. The filter plates were presoaked with 0.4% PEI for 1 h. Next, each filter well was washed with 1.75 mL of 50 mM Tris-HCl (pH 7.4) and left to dry on a heating block set to 50 °C for 2 h. Then, 45 μL of Microscint-20 scintillation fluid was added to each filter well and left to equilibrate overnight. The filter-bound radioactivity was counted in a MicroBeta^2 Microplate Counter. Curves were fitted with a one-site sigmoidal dose–response equation and pKi for each compound was calculated with the Cheng-Pursoff equation. Results were analyzed with one-way ANOVA followed by the Bonferroni’s posthoc test. The results are expressed as means ± SEM of three independent experiments.
smiles,measurement,setting,value
"NCCc1c[nH]c2ccc(O)cc12 [serotonin, reference compound]",Emax,"5-HT1AR [1]; rat hippocampal membranes, basal 5-HT1AR activation set to 100%",192 ± 4.9%
"CN1CC[C@]23c4c5ccc(O)c4O[C@H]2[C@@H](O)C=C[C@H]3[C@H]1C5 [Morphine, reference compound]",analgesic effect in first and second phases of the formalin test,"Male Swiss CB1 mice; 10 mg/kg i.p., formalin 5% 10 μL intraplantar",essentially eliminated the response to formalin
"CCCN(CCC)C1CCc2cccc(O)c2C1 (stereo not drawn) [8-OH-DPAT, reference compound]",neurons showing sEPSC frequency decrease,[2]; 10 μM,4 out of 11
same,neurons showing slow outward current,"[2]; bath application 10 μM, voltage clamp −60 mV",6 out of the 11
same,Emax,5-HT1AR [1],152 ± 2.4%
same,Emax,5-HT1AR [3]; read-out: Emax (%) ± SEM of EC80 agonist concentration alone,142 ± 19.4%
same,Emax,"5-HT1AR [3]; read-out: Emax (%) ± SEM, compound alone",152 ± 2.4%
"COc1ccccc1N1CCN(CCN(C(=O)C2CCCCC2)c2ccccn2)CC1 [WAY-100635, reference compound]","licking response after formalin, per se",Male Swiss CB1 mice; 3 mg/kg i.p.,did not alter the licking response
"COc1cc(OC)c(C(=O)CCCCN2CCC3(CC2)NC(=O)NC3=O)cc1NS(=O)(=O)c1ccc(C(F)(F)F)cc1 [RS-102221, reference compound]",5-HT2C pKi ± SEM,5-HT2CR,8.34 ± 0.12
